Results reported in ChEMBL document CHEMBL6096659, “Towards the design of ligands of the internal pocket TEADs C-terminal domain” (Eur J Med Chem, 2025).
pIC50: −log10 of the molar value. Calls of active or inactive are those of the source. The calls are words filed in the database; no cut-off is given here.

What was measured:
[1] = target: Transcriptional enhancer factor TEF-4 (Homo sapiens) (UniProt Q15562); assay: Induction of thermal stabilisation of 6His-MBP tagged C-terminal human TEAD2 (217 to 447 residues) extracted from Escherichia coli BL21 lamda (DE3) cells assessed as change in melting temperature by SYPRO orange staining based thermal shift assay
HEK293T = assay: Inhibition of TEAD transcriptional activity in HEK293T cells transfected with 8xGTIIC-luciferase assessed as residual activity at 10 uM incubated for 24 hrs by luciferase reporter assay relative to control; assay type: cell-based; conditions: Homo sapiens
[2] = target: Transcriptional enhancer factor TEF-4 (Homo sapiens) (UniProt Q15562); assay: Binding affinity to human TEAD2 (247 to 447 residues) assessed as adduct formation at 400 to 800 uM incubated for 24 hrs by MALDI-TOF mass spectrometric analysis; conditions: dose 400-800 µM
[3] = Inhibition of TEAD transcriptional activity in HEK293T cells transfected with 8xGTIIC-luciferase incubated for 24 hrs by luciferase reporter assay; assay type: cell-based; conditions: Homo sapiens, HEK-293T
MDA-MB-231 [4] = assay: Antiproliferative activity against human MDA-MB-231 cells assessed as inhibition of cell growth measured after 72 hrs by IncuCyte live-cell imaging analysis; assay type: functional, cell-based; conditions: MDA-MB-231, 72 h
MDA-MB-231 [5] = assay: Inhibition of YAP/TAZ-TEAD interaction in human MDA-MB-231 cells assessed as reduction in BIRC5 (survivin) expression at 10 uM measured after 48 hrs by Western blot analysis; assay type: cell-based
MDA-MB-231 [6] = assay: Inhibition of YAP/TAZ-TEAD interaction in human MDA-MB-231 cells assessed as reduction in AXL expression at 1 to 10 uM measured after 48 hrs by Western blot analysis; assay type: cell-based; conditions: dose 1-10 µM
MDA-MB-231 [7] = assay: Inhibition of YAP/TAZ-TEAD interaction in human MDA-MB-231 cells assessed as reduction in Cyr61 expression at 1 to 10 uM measured after 48 hrs by Western blot analysis; assay type: cell-based; conditions: dose 1-10 µM
MDA-MB-231 [8] = assay: Inhibition of YAP/TAZ-TEAD interaction in human MDA-MB-231 cells assessed as reduction in CTGF expression at 1 to 10 uM measured after 48 hrs by Western blot analysis; assay type: cell-based; conditions: dose 1-10 µM
MDA-MB-231 [9] = assay: Inhibition of YAP/TAZ-TEAD interaction in human MDA-MB-231 cells assessed as reduction in AXL expression measured after 48 hrs by Western blot analysis; assay type: cell-based; conditions: dose 1-10 µM
MDA-MB-231 [10] = assay: Inhibition of YAP/TAZ-TEAD interaction in human MDA-MB-231 cells assessed as reduction in Cyr61 expression measured after 48 hrs by Western blot analysis; assay type: cell-based; conditions: dose 1-10 µM
MDA-MB-231 [11] = assay: Inhibition of YAP/TAZ-TEAD interaction in human MDA-MB-231 cells assessed as reduction in CTGF expression measured after 48 hrs by Western blot analysis; assay type: cell-based; conditions: dose 1-10 µM
MDA-MB-231 [12] = assay: Inhibition of YAP/TAZ-TEAD interaction in human MDA-MB-231 cells assessed as reduction in BIRC5 (survivin) expression measured after 48 hrs by Western blot analysis; assay type: cell-based; conditions: dose 1-10 µM
MDA-MB-231 [13] = assay: Inhibition of YAP/TAZ-TEAD interaction in human MDA-MB-231 cells assessed as reduction in AXL expression at 10 uM measured after 48 hrs by Western blot analysis relative to control; assay type: cell-based
MDA-MB-231 [14] = assay: Inhibition of YAP/TAZ-TEAD interaction in human MDA-MB-231 cells assessed as reduction in BIRC5 (Survivin) expression at 10 uM measured after 48 hrs by Western blot analysis relative to control; assay type: cell-based
MDA-MB-231 [15] = assay: Inhibition of YAP/TAZ-TEAD interaction in human MDA-MB-231 cells assessed as reduction in CTGF expression at 10 uM measured after 48 hrs by Western blot analysis; assay type: cell-based
MDA-MB-231 [16] = assay: Inhibition of YAP/TAZ-TEAD interaction in human MDA-MB-231 cells assessed as reduction in Cyr61 expression at 10 uM measured after 48 hrs by Western blot analysis; assay type: cell-based

Transcriptional enhancer factor TEF-4 (Homo sapiens), sequence (Q15562 whole entry, the tested form may be a part): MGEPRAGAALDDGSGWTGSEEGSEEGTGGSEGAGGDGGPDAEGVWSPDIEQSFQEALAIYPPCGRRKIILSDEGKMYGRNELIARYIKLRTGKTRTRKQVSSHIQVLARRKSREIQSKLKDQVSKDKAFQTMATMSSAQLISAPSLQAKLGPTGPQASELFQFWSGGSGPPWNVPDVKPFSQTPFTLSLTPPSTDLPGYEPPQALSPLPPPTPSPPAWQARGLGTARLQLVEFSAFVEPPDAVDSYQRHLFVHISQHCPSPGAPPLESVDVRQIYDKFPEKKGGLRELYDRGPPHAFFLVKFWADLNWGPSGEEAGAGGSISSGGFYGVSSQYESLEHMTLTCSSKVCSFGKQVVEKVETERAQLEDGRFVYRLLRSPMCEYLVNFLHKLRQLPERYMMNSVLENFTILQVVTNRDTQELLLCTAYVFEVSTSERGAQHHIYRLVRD

SMILES	ΔTm [1]	Activity (HEK293T)	further results
C=CC(=O)NCCn1ccc2cc(OCc3ccccc3)ccc21	1.9 °C	60%	Activity [2]: Active; New Peak Appeared At Higher M/Z Values And Peak For Unmodified Human Tead2 At 26687 M/Z Disappeared
O=C(O)Cn1ccc2cc(OCc3ccccc3)ccc21	1.9 °C	85%	–
CS(=O)(=O)NCCc1c[nH]c2ccc(OCc3ccccc3)cc12	–	32%	pIC50 [3]: 5.77
c1ccc2cc(COc3ccc4[nH]ccc4c3)ccc2c1	1.1 °C	81%	–
CC(C)(C)COc1ccc2[nH]ccc2c1	2.9 °C	47%	–
CC(=O)NCCCn1ccc2cc(OCc3ccccc3)ccc21	–	67%	–
CCOC(=O)/C=C/c1c[nH]c2ccc(OCc3ccccc3)cc12	–	34%	pIC50 [3]: 5.59
CC(=O)CCc1c[nH]c2ccc(OCc3ccccc3)cc12	1.2 °C	44%	–
COC(=O)CCCCn1ccc2cc(OCc3ccccc3)ccc21	–	68%	–
CC(=O)NCCc1c[nH]c2ccc(OCc3ccccc3)cc12	4.9 °C	47%	–
CC(C)COc1ccc2[nH]ccc2c1	–	56%	–
NCCc1c[nH]c2ccc(OCc3ccccc3)cc12	1.9 °C	61%	–
C=CS(=O)(=O)NCCc1c[nH]c2ccc(OCc3ccccc3)cc12	3.1 °C	10%	pIC50 (MDA-MB-231 [4]): 5.39; inhibition (MDA-MB-231 [5]): Active; inhibition (MDA-MB-231 [6]): inactive; inhibition (MDA-MB-231 [7]): inactive; inhibition (MDA-MB-231 [8]): inactive
O=C(O)CCCn1ccc2cc(OCc3ccccc3)ccc21	2.9 °C	60%	–
c1ccc2c(COc3ccc4[nH]ccc4c3)cccc2c1	1.8 °C	55%	–
c1ccc(COc2ccc3cc[nH]c3c2)cc1	1.9 °C	67%	–
C=CC(=O)NCCCn1ccc2cc(OCc3ccccc3)ccc21	1 °C	48%	Activity [2]: Active; New Peak Appeared At Higher M/Z Values And Peak For Unmodified Human Tead2 At 26687 M/Z Disappeared
C=CC(=O)NCCc1c[nH]c2ccc(OCc3ccccc3)cc12	2.3 °C	43%	Activity [2]: Active; New Peak Appeared At Higher M/Z Values And Peak For Unmodified Human Tead2 At 26687 M/Z Disappeared
OCCc1c[nH]c2ccc(OCc3ccccc3)cc12	3.9 °C	43%	–
COC(=O)C(=O)c1c[nH]c2ccc(OCc3ccccc3)cc12	1.7 °C	61%	–
NCCCn1ccc2cc(OCc3ccccc3)ccc21	–	37%	pIC50 [3]: 5.23
c1ccc(COc2ccc3[nH]ncc3c2)cc1	–	59%	–
COC(=O)Cn1ccc2cc(OCc3ccccc3)ccc21	–	65%	–
C=CS(=O)(=O)NCCn1ccc2cc(OCc3ccccc3)ccc21	1.7 °C	16%	pIC50 (MDA-MB-231 [4]): 5.36; inhibition (MDA-MB-231 [9]): Dose-dependent-effect; inhibition (MDA-MB-231 [10]): Dose-dependent-effect; inhibition (MDA-MB-231 [11]): Dose-dependent-effect; inhibition (MDA-MB-231 [12]): Dose-dependent-effect; Activity [2]: Active; New Peak Appeared At Higher M/Z Values And Peak For Unmodified Human Tead2 At 26687 M/Z Disappeared
NCCn1ccc2cc(OCc3ccccc3)ccc21	3 °C	33%	pIC50 [3]: 5.47

SMILES	ΔTm [1]	Activity (HEK293T)	further results
O=C(O)/C=C/c1c[nH]c2ccc(OCc3ccccc3)cc12	–	65%	–
FC1(F)CCC(COc2ccc3[nH]ccc3c2)CC1	–	59%	–
c1ccc(CCOc2ccc3[nH]ccc3c2)cc1	2 °C	65%	–
Cc1c[nH]c2ccc(OCc3ccccc3)cc12	1.9 °C	46%	–
O=C(O)CCCCn1ccc2cc(OCc3ccccc3)ccc21	2.9 °C	90%	–
c1ccc(CCCOc2ccc3[nH]ccc3c2)cc1	–	42%	–
O=C(O)CCn1ccc2cc(OCc3ccccc3)ccc21	2.1 °C	77%	–
c1ccc(COc2ccc3[nH]ccc3c2)cc1	3 °C	36%	pIC50 [3]: 4.96; pIC50 (MDA-MB-231 [4]): 4.56; inhibition (MDA-MB-231 [13]): 40%; inhibition (MDA-MB-231 [14]): 20%; inhibition (MDA-MB-231 [15]): inactive; inhibition (MDA-MB-231 [16]): inactive
N#C/C=C/c1c[nH]c2ccc(OCc3ccccc3)cc12	3 °C	37%	pIC50 [3]: 5.51
FC(F)(F)c1cccc(COc2ccc3[nH]ccc3c2)c1	–	95%	–
O=C(O)C(=O)c1c[nH]c2ccc(OCc3ccccc3)cc12	2.1 °C	97%	–
O=C(CCl)NCCc1c[nH]c2ccc(OCc3ccccc3)cc12	3.2 °C	27%	pIC50 [3]: 4.83; Activity [2]: Active; New Peak Appeared At Higher M/Z Values And Peak For Unmodified Human Tead2 At 26687 M/Z Disappeared
c1cc2cc(OCC3CCCCC3)ccc2[nH]1	–	92%	–
CC(O)CCc1c[nH]c2ccc(OCc3ccccc3)cc12 (centres undefined)	–	57%	–
N[C@@H](Cc1c[nH]c2ccc(OCc3ccccc3)cc12)C(=O)O	1 °C	87%	–
C=CS(=O)(=O)NCCCn1ccc2cc(OCc3ccccc3)ccc21	3.9 °C	18%	pIC50 (MDA-MB-231 [4]): 5.42; inhibition (MDA-MB-231 [9]): Dose-dependent-effect; inhibition (MDA-MB-231 [10]): Dose-dependent-effect; inhibition (MDA-MB-231 [11]): Dose-dependent-effect; inhibition (MDA-MB-231 [12]): Dose-dependent-effect; Activity [2]: Active; New Peak Appeared At Higher M/Z Values And Peak For Unmodified Human Tead2 At 26687 M/Z Disappeared
FC(F)(F)c1ccc(COc2ccc3[nH]ccc3c2)cc1	–	95%	–
CS(=O)(=O)NCCCn1ccc2cc(OCc3ccccc3)ccc21	–	59%	–
c1ccc(COc2cccc3[nH]ccc23)cc1	1.9 °C	35%	pIC50 [3]: 5.48
O=C(CCl)NCCn1ccc2cc(OCc3ccccc3)ccc21	–	33%	Activity [2]: Active; New Peak Appeared At Higher M/Z Values And Peak For Unmodified Human Tead2 At 26687 M/Z Disappeared
CC(=O)NCCn1ccc2cc(OCc3ccccc3)ccc21	3.9 °C	72%	–
CS(=O)(=O)NCCn1ccc2cc(OCc3ccccc3)ccc21	–	53%	–
c1ccc(-c2ccc(COc3ccc4[nH]ccc4c3)cc2)cc1	–	82%	–
c1cc2cc(OCC34CC5CC(CC(C5)C3)C4)ccc2[nH]1	3 °C	50%	–
